Read-outs that look alike come from different tables or passages of the source.
Columns and labels:
[1] = design: method as in references provided in Table 4; conditions: therapeutic concentrations, used to calculate EC50/Cmax; ref references provided in Table 4; cited from earlier work
man = conditions: cited from earlier work
HepG2/ECACC cells = assay: Cytotoxicity (intracellular ATP, CellTiter Glo) in HepG2/ECACC cells; type: cell-based, human; conditions: 24 or 72 h, all test sites, up to highest dose
Protocol: A specific clone of HepG2 cells was purchased from the European Collection of Cell Cultures (ECACC). The cells were cultivated and low passage frozen stocks were generated and banked by one MIP-DILI partner designated as the cell bank. The cells were distributed to the relevant MIP-DILI partners. […] Cell number and viability were determined using the trypan blue exclusion method, and the cells were plated at a seeding density of 20,000 cells/well in BD Biocoat Collagen I 96-well plates (Beckton Dickinson, New Jersey, USA). […]
(§1) The CellTiter Glo assay kit (Promega, Madison, WI, USA) was used to determine the ATP content in the cells after exposure to the thirteen compounds for 24 or 72 h. […] The supernatant samples were transferred into opaque flat-bottomed 96-well plates (Greiner-Bio-One, Frickenhausen, Germany) and the luminescence measured.
(§2) Cell viability was determined as the percentage of the fluorescent resorufin after incubation with resazurin in the treated cells compared with vehicle control or the percentage of ATP detected in the treated cells compared with vehicle control. Individual EC50 values from all participants were calculated using GraphPad Prism 6 (version 6.03) at one partner site. […]

Upcyte hepatocytes = assay: Cytotoxicity (intracellular ATP, CellTiter Glo) in Upcyte hepatocytes; type: cell-based, human; conditions: Upcyte cells, 24 or 72 h, all test sites, up to highest dose
Protocol: The cells were then centrifuged (90×g; 5 min; room temperature) and resuspended in fresh Upcyte High Performance Medium (Medicyte, Heidelberg, Germany). Cell number and viability were determined via the trypan blue exclusion method, and the cells were seeded at 18,750 cells/well in white/clear bottom 96-well plates (Beckton Dickinson, New Jersey, USA). After seeding, the cells were incubated for 72 h (37 °C; 5 % CO2; 95 % air) without additional medium change prior to compound treatment.
The compound concentrations used were chosen as representative for each compound when conducting an in vitro safety assessment study. […] Stock aliquots were stored at −20 °C and only thawed once. […]
as §1, §2

[2] = tested on: cryopreserved HepaRG cells; assay: Cytotoxicity (intracellular ATP, CellTiter Glo) in cryopreserved HepaRG cells; type: cell-based, human; conditions: 24 or 72 h, all test sites, up to highest dose
Protocol: Differentiated cryopreserved HepaRG cells were purchased from Biopredic International (Saint-Gregoire, France). The cells were thawed in Thawing/Plating Medium [Williams’ Medium E supplemented with 1 % penicillin/streptomycin, 1 % L-Glutamine, 10 % FCS and 12.5 % ADD670 cocktail (BioPredic International, Saint-Gregoire, France; proprietary medium composition)], centrifuged (500×g; 5 min; room temperature) and then resuspended in fresh Thawing/Plating Medium. After the addition of the ADD670 cocktail, the final DMSO concentration in the Thawing/Plating Medium was 0.5 %. Cell number and viability were determined by the trypan blue exclusion method, and the cells were plated at a seeding density of 72,000 cells/well in white/clear bottom 96-well plates (Beckton Dickinson, New Jersey, USA). […]
as §1
Cell viability was determined as the percentage of the fluorescent resorufin after incubation with resazurin in the treated cells compared with vehicle control or the percentage of ATP detected in the treated cells compared with vehicle control. […]

[3] = tested on: primary human hepatocytes (PHH); assay: Cytotoxicity (intracellular ATP, CellTiter Glo) in primary human hepatocytes; type: cell-based; conditions: cryopreserved PHH, 24 or 72 h, all test sites, up to highest dose
Protocol: Cryopreserved PHH from five donors were provided by KaLy-Cell (Plobsheim, France). […] Cell number and viability were determined by the trypan blue exclusion method, and the cells were plated at a seeding density of 70,000 cells/well of a KaLy-Cell home-coated type I rat tail collagen (10 µg/well) 96-well plate. […]
as §1, §2

[4] = reported to cause hepatotoxicity in man or not, ref references in Table 4

Compound	Cmax [1] [nM]	Hepatotoxic/non-hepatotoxic (man; [4])	also measured
C1CCC(C(CC2CCCCN2)C2CCCCC2)CC1 (stereo not drawn) [Perhexiline]	1520	Hepatotoxic	
CCc1nn(CCCN2CCN(c3cccc(Cl)c3)CC2)c(=O)n1CCOc1ccccc1 [Nefazodone]	859	Hepatotoxic	
O=C(O)Cc1ccccc1Nc1c(Cl)cccc1Cl [Diclofenac]			Hepatotoxic/non-hepatotoxic (man; in vivo): Hepatotoxic
COc1ccccc1Oc1c(NS(=O)(=O)c2ccc(C(C)(C)C)cc2)nc(-c2ncccn2)nc1OCCO [Bosentan]		Hepatotoxic	
CCc1ccc(CCOc2ccc(CC3SC(=O)NC3=O)cc2)nc1 (stereo not drawn) [Pioglitazone]	2670	Non-hepatotoxic	
CCN(CC)C(=O)/C(C#N)=C/c1cc(O)c(O)c([N+](=O)[O-])c1 [Entacapone]	1500	Non-hepatotoxic	
Cc1c(C)c2c(c(C)c1O)CCC(C)(COc1ccc(CC3SC(=O)NC3=O)cc1)O2 (stereo not drawn) [Troglitazone]	6390	Hepatotoxic	
CN(C)C(=N)N=C(N)N [Metformin]	7740		
CCOC(=O)CN[C@@H](C(=O)N1CC[C@H]1C(=O)NCc1ccc(/C(N)=N\O)cc1)C1CCCCC1 [Ximelagatran]			toxicity (cell viability) (HepG2/ECACC cells): no toxicity was detected even at the highest doses; toxicity (cell viability) (Upcyte hepatocytes): no toxicity was detected even at the highest doses; toxicity (cell viability) [2]: no toxicity was detected even at the highest doses; toxicity (cell viability) [3]: no toxicity was detected even at the highest doses
O=C1CC2(CCCC2)CC(=O)N1CCCCN1CCN(c2ncccn2)CC1 [Buspirone]		Non-hepatotoxic	
Cc1ccc(C(=O)c2cc(O)c(O)c([N+](=O)[O-])c2)cc1 [Tolcapone]	27800	Hepatotoxic	
CC(=O)Nc1ccc(O)cc1 [Paracetamol]		Hepatotoxic	

Reference: paper PMC5316403, “A multicenter assessment of single-cell models aligned to standard measures of cell health for prediction of acute hepatotoxicity” (Archives of Toxicology, 2016)
